The results in this text go back to patent publication US10835540B2, “Pharmaceutical use” (Lucolas-M.D. Ltd., priority 2011, dated 2020).

This data set has as its system mastodynia. The data set is described as follows: Previous prescriptions for pre-menstrual breast pain (anamnesis, Example 8). Type of data set: in vivo, human. Particulars: Example 8 patient; for effect of previous prescription on breast pain symptoms: 'The same applies' in b116 refers to 'basically without any effect'. The text has this: Pre-menstrual syndrome with symptoms of strong pain in both breasts since puberty. Dynamic increase of the symptoms with extremely strong tactile sensitivity, strong sensation of swelling and tension with pain symptoms diffusely radiating into the chest and the arms, which becomes virtually unbearable until the beginning of the menstruation. Unable to work because of these conditions for 2-4 days per month since 3 years. Intimate touching not possible for 14 days per month due to the pathologic tactile hyper-sensitivity. Fading-away of the symptoms only 7-10 days after the beginning of the menstruation.

For the compound `CC(C)C[C@H]1C(=O)N2CCC[C@H]2[C@]2(O)O[C@](NC(=O)[C@@H]3C=C4c5cccc6[nH]c(Br)c(c56)C[C@H]4N(C)C3)(C(C)C)C(=O)N12` [Bromocriptin], the “effect of previous prescription on breast pain symptoms” value was “The same applies”.
On to `C#C[C@]1(O)CC[C@H]2[C@@H]3CCC4=Cc5oncc5C[C@]4(C)[C@H]3CC[C@@]21C` [Danazol], for which the “effect of previous prescription on breast pain symptoms” value is “The same applies”.
As for `CC/C(=C(\c1ccccc1)c1ccc(OCCN(C)C)cc1)c1ccccc1` [Tamoxifen], the “effect on breast pain symptoms” value (20 mg) is recorded as “considerable alleviation of the symptoms”. Besides, where the note is “20 mg, mainly cardiovascular, led to quitting the therapy”, the side-effects result is on record as “uncontrolled increase of blood pressure”.
